From PMC10720383, “Acetylcholinesterase Inhibition in Rats and Humans Following Acute Fenitrothion Exposure Predicted by Physiologically Based Kinetic Modeling-Facilitated Quantitative In Vitro to In Vivo Extrapolation” (Environmental Science & Technology, 2023)
Like-named read-outs stand apart in the source and are kept apart here.

Experiments:
[1] = tested on: erythrocyte AChE; assay: PBK modeling-facilitated QIVIVE and BMD analysis, human
Method: (§1) For toxicity prediction, the maximum blood FNO concentration was used as a dose metric relating AChE inhibition to acute FNT exposure (see section 3.3). Since the in vitro AChE inhibition under increasing FNO concentrations was tested in rat and human blood, these nominal concentrations could be used directly as the biological effective concentrations (in vivo maximum blood FNO concentrations), and no extra correction for differences in in vitro and in vivo protein binding was deemed necessary. Then the corresponding FNT dose levels resulting in these in vivo concentrations were derived via PBK modeling-facilitated reverse dosimetry. In doing so, the in vitro concentration–response relationship was converted to the predicted in vivo dose-dependent erythrocyte AChE inhibition, which was then compared to available in vivo toxicity data in rats and humans.[8],[39]
(§2) BMD modeling was used to derive POD values from the predicted in vivo dose-dependent data sets for rats and humans. A BMD value resulting in a 10% benchmark response (BMR) change with lower 95% confidence limit was defined as BMDL10, and the obtained values for rats and humans were evaluated against the reported NOAELs.[1],[11]−[13] Details and results of BMD analysis are provided in the Supporting Information. […]
BMD modeling was used to derive POD values from the predicted in vivo dose-response curves for rats and humans. The EFSA web-tool (https://efsa.openanalytics.eu/) integrated with the R package PROAST (version 70.0) developed by the Dutch National Institute for Public Health and the Environment (RIVM) was used for the BMD analysis. A BMD value resulting in a 10% benchmark response (BMR) change with lower 95% confidence limit was defined as BMDL10. Briefly, the continuous data were fitted to a set of models (Exponential, Hill, Inverse Exponential, and Log-Normal family models), and all fitted models excluding the FULL and NULL models were used for model averaging via a weighted average model. […]

[2] = tested on: erythrocyte AChE; conditions: cited from earlier work
[3] = tested on: erythrocyte AChE; assay: PBK modeling-facilitated QIVIVE and BMD analysis, rat; conditions: erythrocyte AChE inhibition, acute oral FNT exposure
Method: as §1, §2
BMD modeling was used to derive POD values from the predicted in vivo dose-response curves for rats and humans. […]

[4] = tested on: CYP450s; assay: in vitro; format: in vitro ADME; conditions: both sexes, Sprague-Dawley, rat, pH 7.4, rat liver microsomes, gender-mixed
Method: In vitro incubations were performed to obtain kinetic parameters for the CYP450s-catalyzed conversion of FNT to FNO and MNP using gender-mixed rat and human liver microsomes. For the PON1-dominated detoxification of FNO to MNP, in vitro incubations were conducted with gender-mixed liver microsomes or plasma from rats and humans. Sample extraction with diisopropyl ether was performed before UPLC-PDA analysis. More details on in vitro incubations, sample extraction, UPLC-PDA analysis, and calculation of kinetic parameters are provided in the Supporting Information.
Supplementary materials and methods
Chemical and biological materials […]
Human liver microsomes (pooled from 150 donors, mixed gender) and pooled male rat liver microsomes (Sprague-Dawley) were purchased from Corning (Amsterdam, The Netherlands). […] Human plasma (pooled from 25 donors, mixed gender) and rat plasma (Sprague-Dawley, mixed gender) were ordered from BioIVT (West Sussex, UK), and corresponding total protein concentrations were determined using BCA protein assay (Supporting Information). […]

## COP(=S)(OC)Oc1ccc([N+](=O)[O-])c(C)c1 [FNT, O,O-dimethyl O-4-nitro-m-tolyl phosphorothioate]
[1]; BMDL10 rat vs human
  predicted POD for humans, fold lower than that of rats: 5 fold
[1]; human, erythrocyte AChE inhibition, acute oral FNT exposure, 10% BMR, lower 95% confidence limit
  predicted BMDL10 (POD): 0.26 mg/kg BW
[1]; human, erythrocyte AChE inhibition, acute oral FNT exposure, upper confidence limit
  BMDU10: 0.66 mg/kg BW
[2]; JMPR
  acute reference dose (ARfD): 0.04 mg/kg BW/day
[2]; US EPA
  acute reference dose (ARfD): 0.0025 mg/kg BW/day
[3]; 10% BMR, lower 95% confidence limit
  predicted BMDL10 (POD): 1.30 mg/kg BW
[3]; upper confidence limit
  BMDU10: 1.71 mg/kg BW
[4]; read-out: Km, FNT to FNO (CYP450s-catalyzed)
  Km: 8.28 µM
[4]; read-out: Km, FNT to MNP (CYP450s-catalyzed)
  Km: 20.5 µM
